Data on 26 compounds can be found in US12324802B2, “Modulators of cystic fibrosis transmembrane conductance regulator” (Vertex Pharmaceuticals Incorporated, priority 2020, dated 2025).

Molecules are shown by their SMILES. Like-named read-outs stand apart in the source and are kept apart here.

As for `CC(C)(C)OC(=O)Nc1cc(C(F)(F)F)c2nc1-c1nnc(o1)C(OCc1ccccc1)(C(F)(F)F)CCCC(=O)N1CCN2CC1` (centres unmarked), where the note is “from CC(C)(C)OC(=O)Nc1cc(C(F)(F)F)c(N2CCNCC2)nc1-c1nnc(C(CCCC(=O)O)(OCc2ccccc2)C(F)(F)F)o1, amide bond, 15-membered ring, HATU/DIEA, DMF, 14.5 mM, 25.0 °C, 0.083 h”, the ring closure, isolated yield is 80%.

Consider `CC(C)(C)OC(=O)Nc1cc(C(F)(F)F)c2nc1-c1nnc(o1)C(OCc1ccccc1)(C(F)(F)F)CCCCC1CCN2C1` (centres unmarked), for which the ring closure, isolated yield (from CC(C)(C)OC(=O)Nc1cc(C(F)(F)F)c(Br)nc1-c1nnc(C(CCCCC2CCNC2)(OCc2ccccc2)C(F)(F)F)o1, snar bond, 14-membered ring, DIEA, MeCN, 6.33 mM, 80.0 °C, 16.0 h) amounted to 79%.

`CC1(C)CCCC(OCc2ccccc2)(C(F)(F)F)C(=O)NNC(=O)c2nc(c(C(F)(F)F)cc2[N+](=O)[O-])NCC1` (centres unmarked) displayed a ring closure, isolated yield (from CC(C)(CCCC(OCc1ccccc1)(C(=O)O)C(F)(F)F)CCNc1nc(C(=O)O)c([N+](=O)[O-])cc1C(F)(F)F, crosslinker bond, 15-membered ring, hydrazine/BOP/HOAt/DIEA, DMF, 2.1 mM, 30.0 °C) of 84%.

Where the note is “from Cc1ccc(S(=O)(=O)Oc2nc(-c3nnc(C(COCCCC(C)(C)N)(OCc4ccccc4)C(F)(F)F)o3)c([N+](=O)[O-])cc2C(F)(F)F)cc1, snar bond, 14-membered ring, DIEA, DCM, 1.47 mM”, `CC1(C)CCCOCC(OCc2ccccc2)(C(F)(F)F)C2=NN=C(O2)c2nc(c(C(F)(F)F)cc2[N+](=O)[O-])N1` (centres unmarked) registered a ring closure, isolated yield of 45%.

On to `CC1(C)COCCCC(OCc2ccccc2)(C(F)(F)F)C(=O)NNC(=O)c2nc(c(C(F)(F)F)cc2[N+](=O)[O-])N1` (centres unmarked), for which, for the setting “from CC(C)(COCCCC(OCc1ccccc1)(C(=O)O)C(F)(F)F)Nc1nc(C(=O)NN)c([N+](=O)[O-])cc1C(F)(F)F, amide bond, 15-membered ring, BOP/HOBt/DIEA, DMF, 2.78 mM, 25.0 °C, 24.0 h”, the ring closure, isolated yield amounted to 28%.

As for `O=[N+]([O-])c1cc(C(F)(F)F)c2nc1-c1nnc(o1)C(OCc1ccccc1)(C(F)(F)F)CCC=CCC(CO)N2` (centres unmarked), the ring closure, isolated yield (from C=CCCC(OCc1ccccc1)(c1nnc(-c2nc(NC(CO)CC=C)c(C(F)(F)F)cc2[N+](=O)[O-])o1)C(F)(F)F, rcm bond, 14-membered ring, Zhan-1B, DCE, 3.01 mM, 70.0 °C, 2.0 h) is 32%.

`CC(C)(C)OC(=O)Nc1cc(C(F)(F)F)c2nc1-c1nnc(o1)C(OCc1ccccc1)(C(F)(F)F)CCC=CCC1CCCN21` (mixture of isomers) had a ring closure, isolated yield (from C=CCCC(OCc1ccccc1)(c1nnc(-c2nc(N3CCCC3CC=C)c(C(F)(F)F)cc2NC(=O)OC(C)(C)C)o1)C(F)(F)F, rcm bond, 14-membered ring, Grubbs II (21 mol%), DCE, 15.2 mM, 80.0 °C, 0.75 h) of 84%.

With `CC(C)(C)OC(=O)Nc1cc(C(F)(F)F)c2nc1-c1nnc(o1)C(OCc1ccccc1)(C(F)(F)F)CCC=CCCC1CCCN21` (mixture of isomers), the ring closure, isolated yield (from C=CCCC1CCCN1c1nc(-c2nnc(C(CCC=C)(OCc3ccccc3)C(F)(F)F)o2)c(NC(=O)OC(C)(C)C)cc1C(F)(F)F, rcm bond, 15-membered ring, Zhan-1B (24 mol%), DCE, 4.89 mM, 70.0 °C, 16.0 h) was found to be 53%.

As to `CC(C)(C)OC(=O)Nc1cc(C(F)(F)F)c2nc1-c1nnc(o1)C(OCc1ccccc1)(C(F)(F)F)CCC=CC[C@@H]1CCCN21` (mixture of isomers), the ring closure, isolated yield (from C=CCCC(OCc1ccccc1)(c1nnc(-c2nc(N3CCC[C@H]3CC=C)c(C(F)(F)F)cc2NC(=O)OC(C)(C)C)o1)C(F)(F)F, rcm bond, 14-membered ring, Zhan-1B (two charges), DCE, 7.07 mM, 70.0 °C, 20.0 h) stood at 61%.

`CC(C)(C)OC(=O)Nc1cc(C(F)(F)F)c2nc1-c1nnc(o1)C(OCc1ccccc1)(C(F)(F)F)CCC=CC[C@@H]1COCC(=O)N21` (mixture of isomers) returned a ring closure, isolated yield (from C=CCCC(OCc1ccccc1)(c1nnc(-c2nc(N3C(=O)COC[C@H]3CC=C)c(C(F)(F)F)cc2NC(=O)OC(C)(C)C)o1)C(F)(F)F, rcm bond, 14-membered ring, Zhan-1B, DCE, 3.35 mM, 75.0 °C, 4.0 h) of 73%.

Consider `CC(C)(C)OC(=O)Nc1cc(C(F)(F)F)c2nc1-c1nnc(o1)C(OCc1ccccc1)CCC=CC[C@@H]1CCCN21` (mixture of isomers), for which, under “from C=CCCC(OCc1ccccc1)c1nnc(-c2nc(N3CCC[C@H]3CC=C)c(C(F)(F)F)cc2NC(=O)OC(C)(C)C)o1, rcm bond, 14-membered ring, Zhan-1B (15 mol%), DCE, 6.77 mM, 70.0 °C, 20.0 h”, the ring closure, isolated yield is 6%.

Turning to `CC(C)C1CCC=CC[C@](OCc2ccccc2)(C(F)(F)F)C2=NN=C(O2)c2nc(c(C(F)(F)F)cc2[N+](=O)[O-])N1` (mixture of isomers), the ring closure, isolated yield (from C=CCCC(Nc1nc(-c2nnc([C@@](CC=C)(OCc3ccccc3)C(F)(F)F)o2)c([N+](=O)[O-])cc1C(F)(F)F)C(C)C, rcm bond, 14-membered ring, Zhan catalyst-1B, DCE, 15.4 mM, 70.0 °C) came to 47%.

Take `CC1(C)CC2CC=Cc3ccc(F)c(c3)C(O)(C(F)(F)F)C3=NN=C(O3)c3nc(c(C(F)(F)F)cc3N(C(=O)OC(C)(C)C)C(=O)OC(C)(C)C)N2C1` (mixture of isomers): the ring closure, isolated yield (from C=CCC1CC(C)(C)CN1c1nc(-c2nnc(C(O)(c3cc(I)ccc3F)C(F)(F)F)o2)c(N(C(=O)OC(C)(C)C)C(=O)OC(C)(C)C)cc1C(F)(F)F, cc_pd bond, 15-membered ring, Pd(OAc)2/P(o-tol)3/Et3N, MeCN, 7.06 mM, 80.0 °C, 22.0 h) was found to be 58%.

In the case of `CC1(C)CC=CCC(OCc2ccccc2)(C(F)(F)F)C2=NN=C(O2)c2nc(c(C(F)(F)F)cc2[N+](=O)[O-])NC1` (mixture of isomers), the ring closure, isolated yield (from C=CCC(C)(C)CNc1nc(-c2nnc(C(CC=C)(OCc3ccccc3)C(F)(F)F)o2)c([N+](=O)[O-])cc1C(F)(F)F, rcm bond, 14-membered ring, Zhan catalyst-1B, DCE, 2.0 mM, 80.0 °C, 16.0 h) was found to be 14%.

On to `CC1(C)CCC=CC(F)(F)C(OCc2ccccc2)C2=NN=C(O2)c2nc(c(C(F)(F)F)cc2[N+](=O)[O-])N1` (mixture of isomers), for which, for the setting “from C=CCCC(C)(C)Nc1nc(-c2nnc(C(OCc3ccccc3)C(F)(F)C=C)o2)c([N+](=O)[O-])cc1C(F)(F)F, rcm bond, 14-membered ring, Grubbs II, 1,2-dichloroethane, 1.85 mM, 75.0 °C, 1.67 h”, the ring closure, isolated yield worked out at 40%.

Regarding `CC1(C)CCC=CC[C@@](OCc2ccccc2)(C(F)(F)F)C2=NN=C(O2)c2nc(c(C(F)(F)F)cc2N(C(=O)OC(C)(C)C)C(=O)OC(C)(C)C)N1` (mixture of isomers), the ring closure, isolated yield (from C=CCCC(C)(C)Nc1nc(-c2nnc([C@](CC=C)(OCc3ccccc3)C(F)(F)F)o2)c(N(C(=O)OC(C)(C)C)C(=O)OC(C)(C)C)cc1C(F)(F)F, rcm bond, 14-membered ring, Zhan catalyst-1B, toluene, 8.66 mM, 70.0 °C, 3.0 h) was 62%.

With `CC1(C)Nc2nc(c([N+](=O)[O-])cc2C(F)(F)F)C2=NN=C(O2)[C@@](OCc2ccccc2)(C(F)(F)F)CC=CCC1OCc1ccccc1` (mixture of isomers), the ring closure, isolated yield (from C=CCC(OCc1ccccc1)C(C)(C)Nc1nc(-c2nnc([C@@](CC=C)(OCc3ccccc3)C(F)(F)F)o2)c([N+](=O)[O-])cc1C(F)(F)F, rcm bond, 14-membered ring, Zhan catalyst-1B, DCE, 2.36 mM, 70.0 °C, 18.0 h) turned out to be 76%.

Under “from C=CCCC(OCc1ccccc1)(c1nnc(-c2nc(NC(C)CC=C)c(C(F)(F)F)cc2[N+](=O)[O-])o1)C(F)(F)F, rcm bond, 14-membered ring, Zhan-1B, DCE, 1.85 mM, 75.0 °C, 3.0 h”, `CC1CC=CCCC(OCc2ccccc2)(C(F)(F)F)C2=NN=C(O2)c2nc(c(C(F)(F)F)cc2[N+](=O)[O-])N1` (mixture of isomers) showed a ring closure, isolated yield of 61%.

Turning to `CCOC(=O)C1CC=CCCC(OCc2ccccc2)(C(F)(F)F)C2=NN=C(O2)c2nc(c(C(F)(F)F)cc2[N+](=O)[O-])N1` (mixture of isomers), under “from C=CCCC(OCc1ccccc1)(c1nnc(-c2nc(NC(CC=C)C(=O)OCC)c(C(F)(F)F)cc2[N+](=O)[O-])o1)C(F)(F)F, rcm bond, 14-membered ring, Zhan catalyst-1B, DCE, 3.41 mM, 75.0 °C, 2.0 h”, the ring closure, isolated yield came out at 36%.

For `CCOC(=O)C1CCC=CCC(OCc2ccccc2)(C(F)(F)F)C2=NN=C(O2)c2nc(c(C(F)(F)F)cc2[N+](=O)[O-])N1` (mixture of isomers), the ring closure, isolated yield (from C=CCCC(Nc1nc(-c2nnc(C(CC=C)(OCc3ccccc3)C(F)(F)F)o2)c([N+](=O)[O-])cc1C(F)(F)F)C(=O)OCC, rcm bond, 14-membered ring, Zhan-1B, DCE, 2.96 mM, 75.0 °C, 2.0 h) came to 82%.

With `COCC1CCC=CC[C@](OCc2ccccc2)(C(F)(F)F)C2=NN=C(O2)c2nc(c(C(F)(F)F)cc2[N+](=O)[O-])N1` (mixture of isomers), the ring closure, isolated yield (from C=CCCC(COC)Nc1nc(-c2nnc([C@@](CC=C)(OCc3ccccc3)C(F)(F)F)o2)c([N+](=O)[O-])cc1C(F)(F)F, rcm bond, 14-membered ring, Zhan catalyst-1B, DCE, 3.15 mM, 60.0 °C, 5.75 h) amounted to 48%.

In the case of `COc1cc2nc(c1[N+](=O)[O-])-c1nnc(o1)C(OCc1ccccc1)(C(F)(F)F)CCC=CC[C@@H]1CCCN21` (mixture of isomers), the ring closure, isolated yield (from C=CCCC(OCc1ccccc1)(c1nnc(-c2nc(N3CCC[C@H]3CC=C)cc(OC)c2[N+](=O)[O-])o1)C(F)(F)F, rcm bond, 14-membered ring, Zhan catalyst-1B, DCE, 6.85 mM, 70.0 °C, 5.0 h) turned out to be 29%.

Regarding `O=[N+]([O-])c1cc(C(F)(F)F)c2nc1-c1nnc(o1)C(OCc1ccccc1)(C(F)(F)F)CCC=CCC1CCS(=O)(=O)N21` (mixture of isomers), the ring closure, isolated yield (from C=CCCC(OCc1ccccc1)(c1nnc(-c2nc(N3C(CC=C)CCS3(=O)=O)c(C(F)(F)F)cc2[N+](=O)[O-])o1)C(F)(F)F, rcm bond, 14-membered ring, Zhan-1B, DCE, 4.72 mM, 75.0 °C, 6.0 h) turned out to be 19%.

Consider `O=[N+]([O-])c1cc(C(F)(F)F)c2nc1-c1nnc(o1)C(OCc1ccccc1)(C(F)(F)F)CCC=CC[C@@H]1COCCN21` (mixture of isomers), for which, for the setting “from C=CCCC(OCc1ccccc1)(c1nnc(-c2nc(N3CCOC[C@H]3CC=C)c(C(F)(F)F)cc2[N+](=O)[O-])o1)C(F)(F)F, rcm bond, 14-membered ring, Zhan-1B, DCE, 15.9 mM, 70.0 °C, 3.5 h”, the ring closure, isolated yield was 56%.

The compound `O=[N+]([O-])c1cc(C(F)(F)F)c2nc1-c1nnc(o1)[C@@](OCc1ccccc1)(C(F)(F)F)CC=CCCC(c1ncco1)N2` (mixture of isomers) returned a ring closure, isolated yield (from C=CCCC(Nc1nc(-c2nnc([C@@](CC=C)(OCc3ccccc3)C(F)(F)F)o2)c([N+](=O)[O-])cc1C(F)(F)F)c1ncco1, rcm bond, 14-membered ring, Zhan catalyst-1B, DCE, 2.9 mM, 70.0 °C, 4.25 h) of 46%.

In turn, `O=[N+]([O-])c1cc(Cl)c2nc1-c1nnc(o1)C(OCc1ccccc1)(C(F)(F)F)CCC=CC[C@@H]1CCCN21` (mixture of isomers) registered a ring closure, isolated yield (from C=CCCC(OCc1ccccc1)(c1nnc(-c2nc(N3CCC[C@H]3CC=C)c(Br)cc2[N+](=O)[O-])o1)C(F)(F)F, rcm bond, 14-membered ring, Zhan-1B, DCE, 5.74 mM, 70.0 °C, 3.0 h) of 73%.
